For experiment [1], the target named is Atypical kinase COQ8A, mitochondrial (Homo sapiens, UniProt Q8NI60). Nature of the experiment: Selectivity interaction (KinomeScan (DiscoverX)) EUB0000607a ADCK3. The note with it: at 10 µM.
The target of experiment [2] is T1, Phosphatidylinositol 5-phosphate 4-kinase type-2 beta (Homo sapiens) (UniProt P78356).
T1 sequence (whole entry): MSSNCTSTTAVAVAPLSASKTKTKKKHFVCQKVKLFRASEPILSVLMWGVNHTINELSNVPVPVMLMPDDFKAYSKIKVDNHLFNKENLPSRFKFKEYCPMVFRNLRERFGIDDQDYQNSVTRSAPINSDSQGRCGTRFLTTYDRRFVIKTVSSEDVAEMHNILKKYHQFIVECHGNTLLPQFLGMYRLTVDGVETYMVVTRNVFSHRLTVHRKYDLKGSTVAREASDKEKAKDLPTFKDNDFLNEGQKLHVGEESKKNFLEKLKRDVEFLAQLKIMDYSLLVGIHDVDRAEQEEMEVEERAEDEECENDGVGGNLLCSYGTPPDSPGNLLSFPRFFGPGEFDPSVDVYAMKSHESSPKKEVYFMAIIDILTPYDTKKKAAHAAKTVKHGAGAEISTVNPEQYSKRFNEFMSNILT
Nature of the experiment: Selectivity interaction (KinomeScan (DiscoverX)) EUB0000666a PIP4K2B. Conditions: at 10 µM.

Experiment [3] concerns the target T2, Ankyrin repeat and protein kinase domain-containing protein 1 (Homo sapiens) (UniProt Q8NFD2).
T2 sequence (whole entry): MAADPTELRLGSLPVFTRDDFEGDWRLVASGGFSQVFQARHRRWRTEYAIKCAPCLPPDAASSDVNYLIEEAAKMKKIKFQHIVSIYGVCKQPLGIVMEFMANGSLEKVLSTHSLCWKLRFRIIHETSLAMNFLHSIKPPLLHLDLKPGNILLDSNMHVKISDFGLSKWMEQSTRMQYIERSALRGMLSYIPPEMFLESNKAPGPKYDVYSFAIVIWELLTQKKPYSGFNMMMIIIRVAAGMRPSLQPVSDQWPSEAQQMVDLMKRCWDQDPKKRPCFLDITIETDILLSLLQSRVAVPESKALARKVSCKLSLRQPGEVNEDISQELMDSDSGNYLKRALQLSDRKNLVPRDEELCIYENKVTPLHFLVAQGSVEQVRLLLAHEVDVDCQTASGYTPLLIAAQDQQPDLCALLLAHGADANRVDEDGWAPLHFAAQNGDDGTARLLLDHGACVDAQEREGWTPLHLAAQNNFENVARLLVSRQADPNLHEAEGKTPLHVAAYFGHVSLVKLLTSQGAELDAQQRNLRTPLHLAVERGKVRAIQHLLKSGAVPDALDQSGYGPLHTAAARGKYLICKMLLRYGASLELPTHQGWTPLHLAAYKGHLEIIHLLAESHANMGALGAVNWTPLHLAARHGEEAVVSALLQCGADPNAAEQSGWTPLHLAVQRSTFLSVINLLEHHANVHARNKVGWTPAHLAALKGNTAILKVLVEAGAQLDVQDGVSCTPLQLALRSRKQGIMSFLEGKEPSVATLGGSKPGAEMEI
Nature of the experiment: Selectivity interaction (KinomeScan (DiscoverX)) EUB0001619a ANKK1. Conditions: at 1 µM.

Experiment [4] addresses Ribosomal protein S6 kinase alpha-3 (Homo sapiens, UniProt P51812). Description: Selectivity interaction (ActivX KiNativ screen (ex vivo kinase selectivity in human PBMCs)) EUB0001619a RPS6KA3. The format is cell-based. The note with it: PBMC, at 1 µM.
In experiment [5] the target is Dual specificity mitogen-activated protein kinase kinase 1 (Homo sapiens, UniProt Q02750). Nature of the experiment: Selectivity interaction (Enzymatic assay) EUB0001199aCl MAP2K1.
Dual specificity mitogen-activated protein kinase kinase 1, sequence (Q02750 whole entry): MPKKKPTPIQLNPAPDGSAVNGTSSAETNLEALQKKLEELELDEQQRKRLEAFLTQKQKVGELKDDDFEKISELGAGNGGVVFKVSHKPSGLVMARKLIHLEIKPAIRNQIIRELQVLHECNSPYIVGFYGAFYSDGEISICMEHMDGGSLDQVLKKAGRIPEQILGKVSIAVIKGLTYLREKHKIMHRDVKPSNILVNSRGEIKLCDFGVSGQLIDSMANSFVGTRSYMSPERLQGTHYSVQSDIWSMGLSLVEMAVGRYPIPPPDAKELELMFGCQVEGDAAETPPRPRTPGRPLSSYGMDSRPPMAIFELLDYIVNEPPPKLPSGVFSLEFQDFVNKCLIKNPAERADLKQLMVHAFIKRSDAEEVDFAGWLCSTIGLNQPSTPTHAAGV
The target of experiment [6] is T3, Mitogen-activated protein kinase 12 (Homo sapiens) (UniProt P53778).
T3 sequence (whole entry): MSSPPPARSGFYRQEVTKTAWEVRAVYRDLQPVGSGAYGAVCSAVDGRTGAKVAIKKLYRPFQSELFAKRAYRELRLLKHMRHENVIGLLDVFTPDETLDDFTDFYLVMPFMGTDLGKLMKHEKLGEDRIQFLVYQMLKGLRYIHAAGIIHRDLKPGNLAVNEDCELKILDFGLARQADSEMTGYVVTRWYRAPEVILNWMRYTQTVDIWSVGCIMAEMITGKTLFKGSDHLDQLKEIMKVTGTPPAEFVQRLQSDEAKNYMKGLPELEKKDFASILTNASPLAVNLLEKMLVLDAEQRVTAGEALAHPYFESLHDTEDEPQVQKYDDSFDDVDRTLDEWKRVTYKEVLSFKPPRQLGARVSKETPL
Nature of the experiment: Selectivity interaction (Kinase panel (Invitrogen)) EUB0000639a MAPK12. Conditions: at 200 nM.

Experiment [7] deals with Macrophage-stimulating protein receptor (Homo sapiens, UniProt Q04912). Nature of the experiment: Selectivity interaction (Kinase panel (Invitrogen)) EUB0000639a MST1R. The note with it: at 200 nM.
Macrophage-stimulating protein receptor, sequence (Q04912 25-304 limits assumed): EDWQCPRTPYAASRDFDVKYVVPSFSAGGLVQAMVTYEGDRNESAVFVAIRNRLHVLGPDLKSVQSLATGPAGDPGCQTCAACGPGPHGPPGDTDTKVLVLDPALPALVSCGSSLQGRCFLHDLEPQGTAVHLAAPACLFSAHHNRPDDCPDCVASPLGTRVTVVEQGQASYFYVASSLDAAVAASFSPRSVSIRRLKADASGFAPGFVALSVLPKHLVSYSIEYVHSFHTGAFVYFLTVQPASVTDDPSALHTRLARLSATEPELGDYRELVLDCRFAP
Macrophage-stimulating protein receptor, sequence (Q04912 310-1400 limits assumed): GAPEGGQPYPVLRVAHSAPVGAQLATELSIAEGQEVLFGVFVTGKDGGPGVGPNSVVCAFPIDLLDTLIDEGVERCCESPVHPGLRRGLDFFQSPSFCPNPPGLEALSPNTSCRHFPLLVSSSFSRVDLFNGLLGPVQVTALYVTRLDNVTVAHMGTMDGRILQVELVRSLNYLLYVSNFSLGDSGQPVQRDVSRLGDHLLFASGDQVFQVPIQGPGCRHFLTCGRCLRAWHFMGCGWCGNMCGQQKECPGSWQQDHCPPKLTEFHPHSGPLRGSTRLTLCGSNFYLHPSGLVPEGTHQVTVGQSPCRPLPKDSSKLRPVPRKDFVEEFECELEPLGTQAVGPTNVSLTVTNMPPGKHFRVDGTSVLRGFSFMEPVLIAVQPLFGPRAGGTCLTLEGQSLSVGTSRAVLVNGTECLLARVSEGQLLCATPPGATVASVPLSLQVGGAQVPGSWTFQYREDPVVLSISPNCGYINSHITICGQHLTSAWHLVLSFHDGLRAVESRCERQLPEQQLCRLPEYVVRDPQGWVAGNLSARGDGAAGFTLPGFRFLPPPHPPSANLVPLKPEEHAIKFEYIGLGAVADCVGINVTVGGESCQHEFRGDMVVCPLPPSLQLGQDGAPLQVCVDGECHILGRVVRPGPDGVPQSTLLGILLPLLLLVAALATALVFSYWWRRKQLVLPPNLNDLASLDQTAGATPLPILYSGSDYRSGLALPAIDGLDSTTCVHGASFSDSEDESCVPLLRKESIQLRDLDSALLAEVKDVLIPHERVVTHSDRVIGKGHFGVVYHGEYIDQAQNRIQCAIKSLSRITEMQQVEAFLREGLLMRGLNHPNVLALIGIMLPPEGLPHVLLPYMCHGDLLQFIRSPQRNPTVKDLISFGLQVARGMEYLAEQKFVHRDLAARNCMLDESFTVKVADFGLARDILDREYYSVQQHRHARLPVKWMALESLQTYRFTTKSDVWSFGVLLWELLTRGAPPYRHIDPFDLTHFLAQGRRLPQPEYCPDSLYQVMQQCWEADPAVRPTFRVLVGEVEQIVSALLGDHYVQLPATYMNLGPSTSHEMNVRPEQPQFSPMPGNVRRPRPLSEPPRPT
Experiment [8] addresses T4, Protein kinase C zeta type (Homo sapiens) (UniProt Q05513).
T4 sequence (whole entry): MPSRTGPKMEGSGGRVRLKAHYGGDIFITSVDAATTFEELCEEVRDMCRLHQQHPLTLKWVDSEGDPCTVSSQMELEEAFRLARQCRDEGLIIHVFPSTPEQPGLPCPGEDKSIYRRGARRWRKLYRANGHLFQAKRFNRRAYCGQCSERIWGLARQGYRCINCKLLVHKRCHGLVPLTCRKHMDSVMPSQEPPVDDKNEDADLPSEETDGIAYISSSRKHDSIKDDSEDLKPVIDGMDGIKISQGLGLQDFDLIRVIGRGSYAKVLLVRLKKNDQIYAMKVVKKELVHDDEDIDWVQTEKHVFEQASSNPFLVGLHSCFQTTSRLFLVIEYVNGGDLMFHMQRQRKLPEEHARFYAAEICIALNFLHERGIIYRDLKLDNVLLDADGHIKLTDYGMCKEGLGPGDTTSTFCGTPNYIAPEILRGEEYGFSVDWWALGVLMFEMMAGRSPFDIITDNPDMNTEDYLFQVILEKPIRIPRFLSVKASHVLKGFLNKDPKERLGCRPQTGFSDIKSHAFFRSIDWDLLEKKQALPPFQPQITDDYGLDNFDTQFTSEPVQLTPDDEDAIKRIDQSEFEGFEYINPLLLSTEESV
Description: Selectivity interaction (ActivX KiNativ screen (kinase selectivity in THP-1 cell lysates)) EUB0000639a PRKCZ. In kind it is subcellular. Conditions: lysate.

The target in experiment [9] is Mitogen-activated protein kinase 1 (Homo sapiens, UniProt P28482). Nature of the experiment: Selectivity interaction (KinomeScan (DiscoverX)) EUB0000695a MAPK1. Conditions: at 100 nM.
Mitogen-activated protein kinase 1, sequence (P28482 whole entry): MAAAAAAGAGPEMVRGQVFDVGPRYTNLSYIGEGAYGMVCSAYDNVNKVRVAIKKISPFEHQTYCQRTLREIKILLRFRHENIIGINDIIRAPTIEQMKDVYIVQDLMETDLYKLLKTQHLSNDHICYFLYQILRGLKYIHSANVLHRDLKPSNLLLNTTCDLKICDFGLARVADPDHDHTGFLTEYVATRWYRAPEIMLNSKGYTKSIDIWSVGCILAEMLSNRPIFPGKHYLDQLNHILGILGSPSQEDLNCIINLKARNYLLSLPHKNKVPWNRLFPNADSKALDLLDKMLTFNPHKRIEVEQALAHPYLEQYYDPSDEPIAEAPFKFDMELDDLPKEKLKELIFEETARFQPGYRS
Experiment [10] concerns Tyrosine-protein kinase ABL1 (Homo sapiens), P00519 [F317L]. Nature of the experiment: Selectivity interaction (KinomeScan (DiscoverX)) EUB0000045b ABL1. Conditions: at 1 µM.
Tyrosine-protein kinase ABL1 (Homo sapiens), P00519 [F317L], sequence (P00519 whole entry F317L): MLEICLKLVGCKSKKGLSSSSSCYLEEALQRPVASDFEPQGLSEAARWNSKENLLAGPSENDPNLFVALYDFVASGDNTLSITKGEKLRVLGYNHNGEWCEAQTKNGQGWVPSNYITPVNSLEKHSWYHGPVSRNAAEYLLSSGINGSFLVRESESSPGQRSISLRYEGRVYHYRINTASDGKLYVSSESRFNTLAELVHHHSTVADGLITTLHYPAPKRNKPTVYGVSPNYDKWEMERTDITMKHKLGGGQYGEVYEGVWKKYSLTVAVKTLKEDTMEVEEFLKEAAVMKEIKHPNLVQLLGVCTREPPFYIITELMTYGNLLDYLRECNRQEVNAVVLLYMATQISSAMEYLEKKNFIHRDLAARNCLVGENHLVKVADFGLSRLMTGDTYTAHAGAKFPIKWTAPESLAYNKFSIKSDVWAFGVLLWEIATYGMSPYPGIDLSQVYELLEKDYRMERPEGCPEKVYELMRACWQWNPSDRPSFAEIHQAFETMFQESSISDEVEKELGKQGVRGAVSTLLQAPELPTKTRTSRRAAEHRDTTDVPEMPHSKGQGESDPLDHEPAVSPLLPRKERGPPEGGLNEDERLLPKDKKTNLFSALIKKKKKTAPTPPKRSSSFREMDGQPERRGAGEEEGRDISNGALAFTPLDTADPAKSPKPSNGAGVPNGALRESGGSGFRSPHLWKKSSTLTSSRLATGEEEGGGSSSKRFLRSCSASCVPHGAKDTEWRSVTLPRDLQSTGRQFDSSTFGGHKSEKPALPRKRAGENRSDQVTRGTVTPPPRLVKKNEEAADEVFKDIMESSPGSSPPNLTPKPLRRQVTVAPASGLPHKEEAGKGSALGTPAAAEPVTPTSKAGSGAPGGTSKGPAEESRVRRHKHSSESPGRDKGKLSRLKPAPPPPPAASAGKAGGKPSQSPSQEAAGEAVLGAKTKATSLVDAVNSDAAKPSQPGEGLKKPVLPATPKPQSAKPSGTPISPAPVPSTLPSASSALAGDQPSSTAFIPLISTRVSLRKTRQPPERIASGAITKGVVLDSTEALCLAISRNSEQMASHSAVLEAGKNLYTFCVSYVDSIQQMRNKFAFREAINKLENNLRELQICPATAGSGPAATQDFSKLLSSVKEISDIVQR
Experiment [11] concerns the target Phosphatidylinositol 4-phosphate 5-kinase type-1 gamma (Homo sapiens) (UniProt O60331). Nature of the experiment: Selectivity interaction (KinomeScan (DiscoverX)) EUB0000618a PIP5K1C. The note with it: at 10 µM.

This note sets out measurements from ChEMBL document CHEMBL5465560, “Selectivity Literature for EUbOPEN Chemogenomic Library” (2024).

Phosphatidylinositol 4-phosphate 5-kinase type-1 gamma (Homo sapiens), sequence (O60331 whole entry): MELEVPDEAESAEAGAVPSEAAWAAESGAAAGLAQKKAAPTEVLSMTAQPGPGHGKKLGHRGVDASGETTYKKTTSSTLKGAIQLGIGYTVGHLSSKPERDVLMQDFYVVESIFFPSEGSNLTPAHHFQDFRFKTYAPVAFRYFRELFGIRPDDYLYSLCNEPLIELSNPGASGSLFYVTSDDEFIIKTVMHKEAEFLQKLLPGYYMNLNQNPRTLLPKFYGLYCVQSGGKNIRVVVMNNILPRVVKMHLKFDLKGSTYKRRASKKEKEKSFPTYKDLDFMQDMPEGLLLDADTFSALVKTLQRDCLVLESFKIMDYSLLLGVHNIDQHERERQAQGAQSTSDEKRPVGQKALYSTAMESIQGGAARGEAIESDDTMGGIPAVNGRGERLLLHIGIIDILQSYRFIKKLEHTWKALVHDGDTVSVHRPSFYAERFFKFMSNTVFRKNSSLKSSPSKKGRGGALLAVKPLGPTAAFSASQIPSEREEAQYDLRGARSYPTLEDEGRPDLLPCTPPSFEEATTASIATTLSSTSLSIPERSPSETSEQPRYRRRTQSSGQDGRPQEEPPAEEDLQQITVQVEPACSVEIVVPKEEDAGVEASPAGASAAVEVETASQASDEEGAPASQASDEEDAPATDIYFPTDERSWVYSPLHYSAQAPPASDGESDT
Atypical kinase COQ8A, mitochondrial, sequence (Q8NI60 163-647 limits assumed): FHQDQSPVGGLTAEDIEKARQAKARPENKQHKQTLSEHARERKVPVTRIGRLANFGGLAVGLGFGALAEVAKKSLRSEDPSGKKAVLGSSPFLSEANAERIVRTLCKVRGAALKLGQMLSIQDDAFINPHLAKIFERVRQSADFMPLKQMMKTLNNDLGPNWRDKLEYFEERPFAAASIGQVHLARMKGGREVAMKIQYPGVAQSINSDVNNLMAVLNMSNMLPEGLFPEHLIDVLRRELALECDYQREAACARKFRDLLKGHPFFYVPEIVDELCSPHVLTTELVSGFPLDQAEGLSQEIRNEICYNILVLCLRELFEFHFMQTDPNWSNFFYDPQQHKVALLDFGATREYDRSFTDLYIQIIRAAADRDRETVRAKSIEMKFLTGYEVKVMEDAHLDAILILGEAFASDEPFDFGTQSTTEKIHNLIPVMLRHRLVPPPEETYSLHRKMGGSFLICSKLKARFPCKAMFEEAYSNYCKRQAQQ

Turning to `CNC(=O)Nc1ccc(-c2nc(N3CC4CCC(C3)O4)c3cnn(C4CCC5(CC4)OCCO5)c3n2)cc1`, the % of control in [1] was determined as 86%.
For `O=C(NOC[C@H](O)CO)c1ccc(F)c(F)c1Nc1ccc(I)cc1F`, the % of control in experiment [2] is 100%.
In [3], `N#Cc1cccc(-c2c[nH]c3ncnc(N4CCOCC4)c23)c1` had a % of control of 98%. Moreover, the % of inhibition in experiment [4] is -11%.
By IC50 is commonly meant the concentration that gives 50% inhibition. High values mean a need for much substance, low ones inhibition by little substance. On to `CN1Cc2nccc(-c3cn(C)nc3-c3ccc(F)cc3)c2C1=O`, for which, in experiment [5], the IC50 was 10.2 µM.
As to `CC[C@@H]1[C@H](F)C(=O)N[C@@H]1COc1nccc2cc(C(N)=O)c(OC)cc12` [ZIMLOVISERTIB], the % of inhibition was 7.12% in experiment [6]; 12.6% in experiment [7]; 8.5% in experiment [8] (at 0.01 µM); -2.3% in [8] (at 0.04 µM); -7.6% in [8] (at 0.2 µM); 6.9% in experiment [8] (at 1 µM). The % of inhibition in experiment [8] (at 5 µM) was -26.2%.
Regarding `Cc1cc(F)c(C(=O)Nc2cccc(-c3nncn3C(C)C)n2)cc1-n1cnc(C2CC2)c1`, the % of control in experiment [9] was 98%.
As for `C=CC(=O)Nc1cc(-n2c(=O)ccc3cnc4ccc(-c5ccc(NS(C)(=O)=O)cc5)cc4c32)ccc1C`, the % of control in experiment [10] came out at 100%.
On to `O[C@H]1CC[C@H](Nc2ncc3nc(Nc4c(F)cc(F)cc4F)n([C@H]4CCOC4)c3n2)CC1`, for which the % of control in experiment [11] is 76%.
